# Measurements taken from patent US20150105252A1, “SUBSTITUTED PYRAZOLES AS HERBICIDES” (E I DU PONT DE NEMOURS AND COMPANY, priority 2013, published 2015).
# What was measured:
# Conditions in all cases: scale 0 to 100
# chickweed = test: Test D preemergence; format: in vivo, Stellaria media
# From the text: (§1) Seeds of plant species selected from bluegrass (annual bluegrass, Poa annua), blackgrass (Alopecurus myosuroides), canarygrass (littleseed canarygrass, Phalaris minor), chickweed (common chickweed, Stellaria media), galium (catchweed bedstraw, Galium aparine), bromegrass, downy (downy bromegrass, Bromus tectorum), field poppy (Papaver rhoeas), field violet (Viola arvensis), foxtail, green (green foxtail, Setaria viridis), deadnettle (henbit deadnettle, Lamium amplexicaule), ryegrass, Italian (Italian ryegrass, Lolium multiflorum), kochia (Kochia scoparia), lambsquarters (Chenopodium album), oilseed rape (Brassica napus), pigweed (redroot pigweed, Amaranthus retroflexus), chamomile (scentless chamomile, Matricaria inodora), speedwell (bird's-eye speedwell, Veronica persica), barley, spring (spring barley, Hordeum vulgare), wheat, spring (spring wheat, Triticum aestivum), buckwheat, wild (wild buckwheat, Polygonum convolvulus), mustard, wild (wild mustard, Sinapis arvensis), oat, wild (wild oat, Avena fatua), radish, wild (wild radish, Raphanus raphanistrum), windgrass (Apera spica-venti), Russian thistle (Salsola kali), barley, winter (winter barley, Hordeum vulgare), and wheat, winter (winter wheat, Triticum aestivum) were planted into a silt loam soil and treated preemergence with test chemicals formulated in a non-phytotoxic solvent mixture which included a surfactant.
# (§2) At the same time, these species were planted in pots containing Redi-Earth® planting medium (Scotts Company, 14111 Scottslawn Road, Marysville, Ohio 43041) comprising spaghnum peat moss, vermiculite, wetting agent and starter nutrients and treated with postemergence applications of the test chemicals formulated in the same manner. Plants ranged in height from 2 to 18 cm (1- to 4-leaf stage). Treated plants and controls were maintained in a controlled growth environment for 14 to 21 days after which time all species were compared to controls and visually evaluated. Plant response ratings, summarized in Table D, are based on a scale of 0 to 100 where 0 is no effect and 100 is complete control. A dash (-) response means no test result.
# wheat, spring = test: Test D preemergence; format: in vivo, Triticum aestivum
# From the text: as §1, §2
# wheat, winter = test: Test D preemergence; format: in vivo, Triticum aestivum
# From the text: as §1, §2
# windgrass = test: Test D preemergence; format: in vivo, Apera spica-venti
# From the text: as §1, §2
# bluegrass = test: Test D postemergence; format: in vivo, Poa annua
# From the text: as §1, §2
# field poppy = test: Test D postemergence; format: in vivo, Papaver rhoeas
# From the text: as §1, §2
# deadnettle = test: Test D postemergence; format: in vivo, Lamium amplexicaule
# From the text: as §1, §2
# kochia = test: Test D postemergence; format: in vivo, Kochia scoparia
# From the text: as §1, §2
Structure (SMILES),"Plant response rating, Chickweed (chickweed; 31 g ai/ha)","Plant response rating, Chickweed (chickweed; 62 g ai/ha)","Plant response rating, Chickweed (chickweed; 125 g ai/ha)","Plant response rating, Chickweed (chickweed; 250 g ai/ha)","Plant response rating, Wheat, Spring (wheat, spring; 62 g ai/ha)","Plant response rating, Wheat, Spring (wheat, spring; 125 g ai/ha)","Plant response rating, Wheat, Spring (wheat, spring; 250 g ai/ha)","Plant response rating, Wheat, Winter (wheat, winter; 62 g ai/ha)","Plant response rating, Wheat, Winter (wheat, winter; 125 g ai/ha)","Plant response rating, Wheat, Winter (wheat, winter; 250 g ai/ha)","Plant response rating, Windgrass (windgrass; 62 g ai/ha)","Plant response rating, Windgrass (windgrass; 125 g ai/ha)","Plant response rating, Windgrass (windgrass; 250 g ai/ha)","Bluegrass plant response rating (bluegrass; Postemergence, 31 g ai/ha)","Bluegrass plant response rating (bluegrass; Postemergence, 125 g ai/ha)","Bluegrass plant response rating (bluegrass; Postemergence, 250 g ai/ha)","Bluegrass plant response rating (bluegrass; postemergence, 62 g ai/ha)","Field Poppy plant response rating (field poppy; Postemergence, 31 g ai/ha)","Field Poppy plant response rating (field poppy; Postemergence, 125 g ai/ha)","Field Poppy plant response rating (field poppy; Postemergence, 250 g ai/ha)",other results
CCc1cc(C(=O)NC(C)C)nn1Cc1ccnc(C(F)(F)F)c1 [Compound 103],95,100,100,100,10,25,85,10,65,70,80,100,100,10,20,30,25,40,60,70,"Plant response rating, Wheat, Spring (wheat, spring; 31 g ai/ha): 0; Plant response rating, Wheat, Winter (wheat, winter; 31 g ai/ha): 0; Plant response rating, Windgrass (windgrass; 31 g ai/ha): 15; Field Poppy plant response rating (field poppy; postemergence, 62 g ai/ha): 55; Deadnettle plant response rating (deadnettle; Postemergence, 31 g ai/ha): 20; Deadnettle plant response rating (deadnettle; Postemergence, 125 g ai/ha): 25; Deadnettle plant response rating (deadnettle; Postemergence, 250 g ai/ha): 30; Deadnettle plant response rating (deadnettle; postemergence, 62 g ai/ha): 25; Kochia plant response rating (kochia; Postemergence, 31 g ai/ha): 60; Kochia plant response rating (kochia; Postemergence, 125 g ai/ha): 75; Kochia plant response rating (kochia; Postemergence, 250 g ai/ha): 75; Kochia plant response rating (kochia; postemergence, 62 g ai/ha): 65"
CCCc1cc(C(=O)NCC(F)(F)F)nn1Cc1cc(C(F)(F)F)nn1C [Compound 138],100,100,100,100,10,35,50,30,40,60,45,100,100,15,30,60,15,55,65,75,"Field Poppy plant response rating (field poppy; postemergence, 62 g ai/ha): 55; Deadnettle plant response rating (deadnettle; Postemergence, 31 g ai/ha): 65; Deadnettle plant response rating (deadnettle; Postemergence, 125 g ai/ha): 75; Deadnettle plant response rating (deadnettle; Postemergence, 250 g ai/ha): 85; Deadnettle plant response rating (deadnettle; postemergence, 62 g ai/ha): 65; Kochia plant response rating (kochia; Postemergence, 31 g ai/ha): 75; Kochia plant response rating (kochia; Postemergence, 125 g ai/ha): 80; Kochia plant response rating (kochia; Postemergence, 250 g ai/ha): 80; Kochia plant response rating (kochia; postemergence, 62 g ai/ha): 75"
CCOc1cc(C(=O)NC2CC2)nn1Cc1ccnc(C(F)(F)F)c1 [Compound 189],95,100,100,100,10,40,80,15,65,85,65,100,100,15,15,30,15,55,75,75,"Field Poppy plant response rating (field poppy; postemergence, 62 g ai/ha): 55; Deadnettle plant response rating (deadnettle; Postemergence, 31 g ai/ha): 45; Deadnettle plant response rating (deadnettle; Postemergence, 125 g ai/ha): 55; Deadnettle plant response rating (deadnettle; Postemergence, 250 g ai/ha): 75; Deadnettle plant response rating (deadnettle; postemergence, 62 g ai/ha): 45; Kochia plant response rating (kochia; Postemergence, 31 g ai/ha): 75; Kochia plant response rating (kochia; Postemergence, 125 g ai/ha): 80; Kochia plant response rating (kochia; Postemergence, 250 g ai/ha): 85; Kochia plant response rating (kochia; postemergence, 62 g ai/ha): 75"
